Source: publication PMC6315548, “Cardiac Targeting Peptide, a Novel Cardiac Vector: Studies in Bio-Distribution, Imaging Application, and Mechanism of Transduction” (Biomolecules, 2018)
One block for each compound: values may come before it.

How the values were obtained:
beating neonatal CMCs = assay: Uptake of dual-labeled CTP by beating neonatal cardiomyocytes (confocal microscopy); assay type: cell-based, mouse; conditions: Digoxin 100 nM; 20 mM K+; dual-labeled CTP 25 μM; n = 3; p-value < 0.001
Method: To further study the CTP’s mechanism of transduction, CMCs were isolated from 1–3-day old mouse pups using published protocols. Beating CMCs were incubated with the dual-labeled CTP (25 μM) under normokalemic (5 mM) and hyperkalemic (20 mM) conditions. […] The degree of transduction of these cells was quantified using confocal microscopy. […] Rhodamine with an ester link was used as a negative control.

wild-type CD1 mice = assay: Cardiac targeting peptide imaging studies (microSPECT/CT and dynamic planar imaging); assay type: in vivo, mouse; conditions: 1-5 mCi injected; dual modality microSPECT/CT
Method: Cardiac targeting peptide was synthesized as detailed above, with HYNIC conjugated to the N-terminus and labeled with ^99mTc in a manner that was analogous to that described previously. The desired ^99mTc-HYNIC-CTP was purified from the crude reaction mixture using solid-phase extraction methods. The radiochemical purity of the final product was determined using reverse-phase HPLC methods.
Wild-type, 6–8 week old, CD1 mice (~25 g) were injected with 1–5 mCi of ^99mTc Sestamibi or ^99mTc-HYNIC-CTP, and was imaging performed immediately post-injection and at various time points using a Siemens Inveon dual-modality single photon emission computerized tomography/computerized tomography (SPECT/CT) with 5-MWB-1.0 collimators (Siemens Corporation, Washington, DC, USA). The images were resliced for a coronal view and they were Z-stack summed. Analysis of the distribution of the radioisotope was performed using ImageJ software. Measurements were taken by selecting a region of interest at the 0 h time point, applying the same region at different time points for dynamic time course studies. All counts were corrected for the radioactive decay of ^99mTc. For a comparison of dynamic planar images, the highest count in each organ (heart, kidney, and bladder) was set at 100%, and the counts at other time-points plotted as a percentage of that count.

[1] = test system: human iPSC-derived beating cardiomyocytes (CMCs); assay: Transduction of human iPSC-derived cardiomyocytes (confocal imaging); assay type: cell-based; conditions: 10 μM, 30 min, 37 °C; washed 3x with PBS; confocal microscopy; Supplemental Figure 5
Method: All protocols involving human tissue samples were approved by the University of Pittsburgh Institutional Review Board (No. PRO09090021). […] After the incubation period, cells were washed, and live confocal imaging was performed immediately.

transferrin receptor = target: T1, transferrin receptor (Rattus norvegicus, UniProt Q99376); assay: LRC-TriCEPs ligand-receptor capture on H9C2 cells, mass spectrometry (transferrin positive control); assay type: binding; conditions: TriCEPS-transferrin conjugate on H9C2 cells; triplicate
T1 construct: endogenous in cells; host or cells: H9C2 rat cardiomyoblast cells
Text: To identify a possible binding partner for CTP, we utilized LRC-TriCEPs technology a service provided by Dualsystems Biotech (Zurich, Switzerland). This methodology relies on TriCEPs™, a trifunctional chemoproteomics reagent, containing (1) a N-hydroxysuccinimide (NHS) ester for attachment to the ligand, (2) a protected hydrazine function for capturing the interacting receptor, and (3) a function for the purification of the ligand-receptor complex. Rat cardiomyoblast cell line H9C2 cells were grown in Dulbecco’s Modified Eagle’s Medium: Nutrient Mixture F-12 (DMEM/F12) (Gibco, Gaithersburg, MD, USA; cat #11039) medium supplemented with 10% fetal bovine serum and maintained at ≤70% confluence. A pretest was performed to identify the binding conditions of the TriCEPS-CTP conjugate on H9C2 cells at varying temperatures, times of incubation, and pH, with successful labeling being analyzed by fluorescence-activated cell sorting (FACs). The LRC-TriCEPS experiment was performed with TriCEP-CTP, TriCEPS-transferrin, and TriCEPS-glycine conjugates, each in triplicate. After the incubation period, cells were lazed and purified using solid-state chromatography, and identified using mass spectrometry. […]

T1 sequence (Q99376 whole entry): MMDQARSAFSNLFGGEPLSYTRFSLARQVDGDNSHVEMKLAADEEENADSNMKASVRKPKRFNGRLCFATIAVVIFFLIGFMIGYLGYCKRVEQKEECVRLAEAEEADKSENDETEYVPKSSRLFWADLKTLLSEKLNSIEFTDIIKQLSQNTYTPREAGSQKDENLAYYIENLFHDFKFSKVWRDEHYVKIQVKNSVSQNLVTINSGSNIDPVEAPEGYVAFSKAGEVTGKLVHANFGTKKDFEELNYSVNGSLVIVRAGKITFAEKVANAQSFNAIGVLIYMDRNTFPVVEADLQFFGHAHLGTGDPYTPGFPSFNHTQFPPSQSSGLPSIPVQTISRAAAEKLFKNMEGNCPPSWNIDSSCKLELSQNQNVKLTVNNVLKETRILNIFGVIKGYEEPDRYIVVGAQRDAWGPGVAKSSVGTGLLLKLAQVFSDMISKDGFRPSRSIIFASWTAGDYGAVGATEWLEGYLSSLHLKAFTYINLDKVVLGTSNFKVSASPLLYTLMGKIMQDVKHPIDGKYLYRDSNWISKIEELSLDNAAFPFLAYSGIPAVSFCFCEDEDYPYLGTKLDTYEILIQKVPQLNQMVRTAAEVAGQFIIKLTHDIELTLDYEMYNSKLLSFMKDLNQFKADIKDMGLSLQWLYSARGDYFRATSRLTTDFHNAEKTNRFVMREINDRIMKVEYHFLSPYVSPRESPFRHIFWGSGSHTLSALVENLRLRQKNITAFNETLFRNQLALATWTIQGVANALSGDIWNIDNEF

Compound: C[C@H]1O[C@@H](O[C@H]2[C@@H](O)C[C@H](O[C@H]3[C@@H](O)C[C@H](O[C@H]4CC[C@@]5(C)[C@H](CC[C@@H]6[C@@H]5C[C@@H](O)[C@]5(C)[C@@H](C7=CC(=O)OC7)CC[C@]65O)C4)O[C@@H]3C)O[C@@H]2C)C[C@H](O)[C@@H]1O [Digoxin]
effect of pre-incubation on the hyperkalemia-induced increase in CTP uptake (beating neonatal CMCs): significantly abrogated

uptake by the heart (SPECT/CT) (wild-type CD1 mice): cardiac uptake
uptake in the liver or gut (for Sestamibi also kidneys) (wild-type CD1 mice): significant uptake
Compound: [C-]#[N+]CC(C)(C)OC.[C-]#[N+]CC(C)(C)OC.[C-]#[N+]CC(C)(C)OC.[C-]#[N+]CC(C)(C)OC.[C-]#[N+]CC(C)(C)OC.[C-]#[N+]CC(C)(C)OC.[Tc] [^99mTc Sestamibi]

Compound: H-STLMKFCYVEQN-OH [RAN]
uptake by human iPSC-derived CMCs [1]: some background binding to the gel matrix

fold increase of transferrin receptor in the positive control over CTP (transferrin receptor): ~5 fold
Compound: transferrin: positive control ligand in the LRC-TriCEPS experiment
